Data from ChEMBL document CHEMBL4665632, “Design, synthesis and biological evaluation of pyridone-aminal derivatives as MNK1/2 inhibitors” (Bioorg Med Chem, 2019).
pIC50: −log10 of the molar value.

Key:
[1] = target: T1, MAP kinase-interacting serine/threonine-protein kinase 2 (Homo sapiens, UniProt Q9HBH9); assay: Inhibition of recombinant human N-terminal GST-tagged MNK2 (1 to 465 residues) expressed in baculovirus expression system using TATKSGSTTKNR as substrate preincubated for 10 mins followed by ATP addition and measured after 40 mins by luminescence based assay
Target sequence in this assay (Q9HBH9 whole entry, the tested form may be a part): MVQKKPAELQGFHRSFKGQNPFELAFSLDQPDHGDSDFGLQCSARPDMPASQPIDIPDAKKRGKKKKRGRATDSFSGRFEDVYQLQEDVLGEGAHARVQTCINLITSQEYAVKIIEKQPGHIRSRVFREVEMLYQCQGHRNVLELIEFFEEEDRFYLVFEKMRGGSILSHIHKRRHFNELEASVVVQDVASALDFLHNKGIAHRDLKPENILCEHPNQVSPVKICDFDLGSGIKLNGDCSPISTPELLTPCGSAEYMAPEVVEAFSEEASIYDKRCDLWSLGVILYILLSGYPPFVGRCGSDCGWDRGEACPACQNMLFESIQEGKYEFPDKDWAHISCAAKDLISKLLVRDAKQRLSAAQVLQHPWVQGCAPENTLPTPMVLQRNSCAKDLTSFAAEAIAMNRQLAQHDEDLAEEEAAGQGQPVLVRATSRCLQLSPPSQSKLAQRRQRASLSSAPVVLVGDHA

[2] = target: T2, MAP kinase-interacting serine/threonine-protein kinase 1 (Homo sapiens, UniProt Q9BUB5); assay: Inhibition of recombinant human N-terminal DYKDDDDK-tagged MNK1(1 to 424 residues) expressed in baculovirus expression system using TATKSGSTTKNR as substrate preincubated for 10 mins followed by ATP addition and measured after 40 mins by luminescence based assay
Target sequence in this assay (Q9BUB5 whole entry, the tested form may be a part): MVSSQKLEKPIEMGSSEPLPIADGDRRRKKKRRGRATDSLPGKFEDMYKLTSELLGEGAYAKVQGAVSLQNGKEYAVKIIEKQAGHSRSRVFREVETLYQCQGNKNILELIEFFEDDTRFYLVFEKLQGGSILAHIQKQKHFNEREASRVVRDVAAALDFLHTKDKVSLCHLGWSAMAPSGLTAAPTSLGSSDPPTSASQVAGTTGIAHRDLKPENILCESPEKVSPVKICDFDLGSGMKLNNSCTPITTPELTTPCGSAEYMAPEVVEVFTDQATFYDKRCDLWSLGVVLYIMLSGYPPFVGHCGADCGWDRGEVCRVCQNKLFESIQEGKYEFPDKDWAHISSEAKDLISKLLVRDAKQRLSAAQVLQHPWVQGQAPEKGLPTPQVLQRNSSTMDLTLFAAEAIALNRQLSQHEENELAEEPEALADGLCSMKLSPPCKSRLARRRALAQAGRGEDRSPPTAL

[3] = target: T1, MAP kinase-interacting serine/threonine-protein kinase 2; assay: Inhibition of MNK2 (unknown origin) at 100 nM incubated for 60 mins by HTRF assay
Target sequence in this assay (Q9HBH9 whole entry, looked up, the tested form may be a part): as the sequence (Q9HBH9 whole entry, the tested form may be a part) above

[4] = target: T2, MAP kinase-interacting serine/threonine-protein kinase 1; assay: Inhibition of MNK1 (unknown origin) at 100 nM incubated for 60 mins by HTRF assay
Target sequence in this assay (Q9BUB5 whole entry, looked up, the tested form may be a part): as the sequence (Q9BUB5 whole entry, the tested form may be a part) above

[5] = system: A549; assay: Antiproliferative activity against human A549 cells assessed as reduction in cell viability incubated at 20 uM for 72 hrs by MTT assay relative to control; type: functional
[6] = system: MV4-11; assay: Antiproliferative activity against human MV4-11 cells assessed as reduction in cell viability incubated for 72 hrs by MTT assay; type: functional, cell-based; settings: MV4-11, 72 h
[7] = system: TMD8; assay: Antiproliferative activity against human TMD8 cells assessed as reduction in cell viability incubated for 72 hrs by MTT assay; type: functional, cell-based; settings: TMD8, 72 h
[8] = system: K562; assay: Antiproliferative activity against human K562 cells assessed as reduction in cell viability incubated for 72 hrs by MTT assay; type: functional, cell-based; settings: K562, 72 h
[9] = system: MDA-MB-435; assay: Antiproliferative activity against human MDA-MB-435 cells assessed as reduction in cell viability at 20 uM incubated for 72 hrs by MTT assay relative to control; type: functional
[10] = system: HCT-116; assay: Antiproliferative activity against human HCT-116 cells assessed as reduction in cell viability at 20 uM incubated for 72 hrs by MTT assay relative to control; type: functional
[11] = Antiproliferative activity against […] cells assessed as reduction in cell viability at 20 uM incubated for 72 hrs by MTT assay relative to control; type: functional, Mus musculus

pIC50 [1] | pIC50 [2] | inhibition [3] [%] | inhibition [4] [%] | pIC50 [6] | pIC50 [8] | Compound | inhibition at 20 µM [5] [%] | pIC50 [7] | inhibition at 20 µM [9] [%] | inhibition at 20 µM [10] [%] | inhibition at 20 µM [11] [%]
< 6.30 | < 6.30 | 18.9 | 22.4 |  |  | Cc1cc(Nc2ncccn2)c(=O)n2c1C(=O)NC21CCCCC1 |  |  |  |  | 
< 6.30 | 6.33 | 36.8 | 47.6 |  |  | Cc1cc(Nc2cnccn2)c(=O)n2c1C(=O)NC21CCCCC1 |  |  |  |  | 
< 6.30 | < 6.30 | 30.2 | 33.2 |  |  | Cc1cc(Nc2nccc(N)n2)c(=O)n2c1C(=O)NC21CCCCC1 |  |  |  |  | 
7.20 | 7.16 | 86.9 | 73.3 | < 4.70 | < 4.70 | CC(=O)N1CCN(c2cc(Nc3cc(C)c4n(c3=O)C3(CCCCC3)NC4=O)ncn2)CC1 | 28.8 | 5.08 | 16 | 28.9 | 46.7
< 6.30 | < 6.30 | 14.6 | 25.4 |  |  | Cc1cc(Nc2cn(C)nc2C(F)F)c(=O)n2c1C(=O)NC21CCCCC1 |  |  |  |  | 
< 6.30 | < 6.30 | 23.9 | 25.9 |  |  | Cc1cc(Nc2cccnn2)c(=O)n2c1C(=O)NC21CCCCC1 |  |  |  |  | 
< 6.30 | < 6.30 | 11.9 | 10.5 |  |  | Cc1cc(Nc2cn(C)nc2C#N)c(=O)n2c1C(=O)NC21CCCCC1 |  |  |  |  | 
< 6.30 | < 6.30 | 13.3 | 20.2 |  |  | Cc1cc(Nc2cccnc2)c(=O)n2c1C(=O)NC21CCCCC1 |  |  |  |  | 
< 6.30 | < 6.30 | 13.4 | 19.8 |  |  | Cc1cccc(Nc2cc(C)c3n(c2=O)C2(CCCCC2)NC3=O)n1 |  |  |  |  | 
6.41 | 6.32 | 55.4 | 53.2 |  |  | Cc1cc(Nc2cn(C)nc2N)c(=O)n2c1C(=O)NC21CCCCC1 |  |  |  |  | 
6.34 | 6.32 | 50.3 | 37.5 |  |  | Cc1cc(Nc2cc(N3CCCCC3)ncn2)c(=O)n2c1C(=O)NC21CCCCC1 |  |  |  |  | 
6.34 | < 6.30 | 35.5 | 21.4 |  |  | Cc1cc(Nc2cc(N3CCOCC3)ncn2)c(=O)n2c1C(=O)NC21CCCCC1 |  |  |  |  | 
7.09 | 6.90 | 64.3 | 62.7 | < 4.70 | 4.75 | Cc1cc(Nc2cc(N3CCC(N)CC3)ncn2)c(=O)n2c1C(=O)NC21CCCCC1 | 50.1 | 5.00 | 42 | 46.8 | 36.5
7.38 | 7.29 | 66.8 | 54.4 | < 4.70 | 4.75 | Cc1cc(Nc2cc(N3CCN(C)CC3)ncn2)c(=O)n2c1C(=O)NC21CCCCC1 | 39 | 5.32 | 44.3 | 65.2 | 38.8
< 6.30 | < 6.30 | 23 | 17.8 |  |  | Cc1cccnc1Nc1cc(C)c2n(c1=O)C1(CCCCC1)NC2=O |  |  |  |  | 
< 6.30 | < 6.30 | 16.2 | 19.5 |  |  | Cc1cc(Nc2ccccn2)c(=O)n2c1C(=O)NC21CCCCC1 |  |  |  |  | 
6.40 | 6.37 | 45.2 | 26.8 |  |  | Cc1cc(Nc2cc(C)c3n(c2=O)C2(CCCCC2)NC3=O)ccn1 |  |  |  |  | 
< 6.30 | < 6.30 | 30.8 | 43.4 |  |  | Cc1cc(Nc2cc(N)ccn2)c(=O)n2c1C(=O)NC21CCCCC1 |  |  |  |  | 
< 6.30 | < 6.30 | 33.2 | 25.3 |  |  | Cc1cc(Nc2cncc(N)n2)c(=O)n2c1C(=O)NC21CCCCC1 |  |  |  |  | 
